{"source": "patent US11945794B2", "about": "“Nuclear transport modulators and uses thereof” (Karyopharm Therapeutics Inc., priority 2013, dated 2024)", "format_in_all_cases": "cell-based", "key": {"wild-type CRM1": {"target": "T1, wild-type CRM1 (Homo sapiens, UniProt O14980)", "T1 construct": "expressed in transfected cells; host or cells: U2OS (osteosarcoma) cells stably expressing Rev-GFP", "T1 sequence (O14980 whole entry, species assumed, the tested form may be a part)": "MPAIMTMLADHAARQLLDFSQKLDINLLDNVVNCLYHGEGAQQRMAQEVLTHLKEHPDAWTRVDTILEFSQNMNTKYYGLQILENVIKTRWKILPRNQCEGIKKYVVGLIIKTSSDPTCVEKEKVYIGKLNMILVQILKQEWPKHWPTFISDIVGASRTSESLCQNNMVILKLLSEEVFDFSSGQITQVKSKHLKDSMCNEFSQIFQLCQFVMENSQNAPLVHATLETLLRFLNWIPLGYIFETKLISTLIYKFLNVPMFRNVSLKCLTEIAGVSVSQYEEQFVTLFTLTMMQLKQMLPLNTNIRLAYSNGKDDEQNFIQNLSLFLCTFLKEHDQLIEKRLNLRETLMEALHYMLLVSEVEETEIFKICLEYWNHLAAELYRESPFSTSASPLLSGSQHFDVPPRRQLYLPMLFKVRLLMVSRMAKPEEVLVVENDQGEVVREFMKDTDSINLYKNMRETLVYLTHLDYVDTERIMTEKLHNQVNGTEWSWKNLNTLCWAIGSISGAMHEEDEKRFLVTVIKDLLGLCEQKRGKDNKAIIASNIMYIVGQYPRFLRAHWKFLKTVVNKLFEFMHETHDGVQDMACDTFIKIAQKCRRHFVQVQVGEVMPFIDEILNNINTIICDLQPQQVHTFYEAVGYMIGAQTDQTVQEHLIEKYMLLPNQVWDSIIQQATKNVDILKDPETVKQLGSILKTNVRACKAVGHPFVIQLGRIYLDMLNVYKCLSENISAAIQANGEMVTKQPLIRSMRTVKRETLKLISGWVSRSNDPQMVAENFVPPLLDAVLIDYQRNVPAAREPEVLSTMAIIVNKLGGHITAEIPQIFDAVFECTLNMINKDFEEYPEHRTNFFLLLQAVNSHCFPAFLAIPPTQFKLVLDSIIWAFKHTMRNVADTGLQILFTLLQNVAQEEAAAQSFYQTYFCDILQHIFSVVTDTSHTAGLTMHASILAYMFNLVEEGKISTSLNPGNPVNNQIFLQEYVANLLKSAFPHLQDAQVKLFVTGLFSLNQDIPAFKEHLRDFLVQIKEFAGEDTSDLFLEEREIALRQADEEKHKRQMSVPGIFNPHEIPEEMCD", "experiment": "Cys 528 mutation assay, Rev-GFP localization", "settings": "30 μM, 4 hours, U2OS Rev-GFP cells", "protocol": "U2OS (osteosarcoma) cells stably expressing GFP-tagged HIV-Rev fused to the cAMP-dependent protein kinase inhibitor (PM) nuclear export signal (Rev-GFP) were transiently transfected with constructs expressing wild-type CRM1 or mutant CRM1-Cys528Ser for 36 hours. The transient transfection efficiency in the experiment was estimated to be 50%."}, "LoVo": {"test_system": "LoVo", "experiment": "MTT assay panel", "settings": "Homo sapiens; LoVo cells, 72 hours", "protocol": "(§1) Compound 124 was further tested against a panel of selected solid and hematological cancer cell lines and selected normal cell lines in an MTT assay. Briefly, the various cell lines above were plated at different densities on day 1. […] Cell Titer AQueous One was added to each well, and the plates were read in a plate reader at OD 495."}, "SNU-398": {"test_system": "SNU-398", "experiment": "MTT assay panel", "settings": "Homo sapiens; SNU-398 cells, 72 hours", "protocol": "as §1"}, "MO7e": {"test_system": "MO7e", "experiment": "MTT assay panel", "settings": "MO7e cells, 72 hours", "protocol": "as §1"}, "L3.6pl": {"test_system": "L3.6pl", "experiment": "MTT assay panel", "settings": "Homo sapiens; L3.6pl cells, 72 hours", "protocol": "as §1"}, "MDA-MB-361": {"test_system": "MDA-MB-361", "experiment": "MTT assay panel", "settings": "Homo sapiens; MDA-MB-361 cells, 72 hours", "protocol": "as §1"}, "HEP3B": {"test_system": "HEP3B", "experiment": "MTT assay panel", "settings": "Homo sapiens; HEP3B cells, 72 hours", "protocol": "as §1"}, "NCI-H508": {"test_system": "NCI-H508", "experiment": "MTT assay panel", "settings": "Homo sapiens; NCI-H508 cells, 72 hours", "protocol": "as §1"}, "PL-45": {"test_system": "PL-45", "experiment": "MTT assay panel", "settings": "PL45; PL-45 cells, 72 hours", "protocol": "as §1"}, "BL-2": {"test_system": "BL-2", "experiment": "MTT assay panel", "settings": "BL2; BL-2 cells, 72 hours", "protocol": "as §1"}, "HTB-38": {"test_system": "HTB-38", "experiment": "MTT assay panel", "settings": "HTB-38 cells, 72 hours", "protocol": "as §1"}, "U-937": {"test_system": "U-937", "experiment": "MTT assay panel", "settings": "Homo sapiens; U-937 cells, 72 hours", "protocol": "as §1"}, "DLD-1": {"test_system": "DLD-1", "experiment": "MTT assay panel", "settings": "Homo sapiens; DLD-1 cells, 72 hours", "protocol": "as §1"}, "HuCCT-1": {"test_system": "HuCCT-1", "experiment": "MTT assay panel", "settings": "Homo sapiens; HuCCT-1 cells, 72 hours", "protocol": "as §1"}, "NCI-H28": {"test_system": "NCI-H28", "experiment": "MTT assay panel", "settings": "Homo sapiens; NCI-H28 cells, 72 hours", "protocol": "as §1"}, "NCI-H69": {"test_system": "NCI-H69", "experiment": "MTT assay panel", "settings": "Homo sapiens; NCI-H69 cells, 72 hours", "protocol": "as §1"}, "Pfieffer": {"test_system": "Pfieffer", "experiment": "MTT assay panel", "settings": "Pfieffer cells, 72 hours", "protocol": "as §1"}, "SW-48": {"test_system": "SW-48", "experiment": "MTT assay panel", "settings": "Homo sapiens, SW48; SW-48 cells, 72 hours", "protocol": "as §1"}, "PATU-8988T": {"test_system": "PATU-8988T", "experiment": "MTT assay panel", "settings": "Homo sapiens; PATU-8988T cells, 72 hours", "protocol": "as §1"}, "SW-1417": {"test_system": "SW-1417", "experiment": "MTT assay panel", "settings": "Homo sapiens, SW1417; SW-1417 cells, 72 hours", "protocol": "as §1"}, "C6": {"test_system": "C6", "experiment": "MTT assay panel", "settings": "Rattus norvegicus; C6 cells, 72 hours", "protocol": "as §1"}, "MOLT4": {"test_system": "MOLT4", "experiment": "MTT assay panel", "settings": "Homo sapiens, MOLT-4; MOLT4 cells, 72 hours", "protocol": "as §1"}, "HPAC": {"test_system": "HPAC", "experiment": "MTT assay panel", "settings": "Homo sapiens; HPAC cells, 72 hours", "protocol": "as §1"}, "SHP-77": {"test_system": "SHP-77", "experiment": "MTT assay panel", "settings": "Homo sapiens, SHP77; SHP-77 cells, 72 hours", "protocol": "as §1"}, "3T3": {"test_system": "3T3", "experiment": "MTT assay panel", "settings": "Mus musculus, NIH3T3; 3T3 cells, 72 hours", "protocol": "as §1"}, "SW-403": {"test_system": "SW-403", "experiment": "MTT assay panel", "settings": "Homo sapiens; SW-403 cells, 72 hours", "protocol": "as §1"}, "MM1R": {"test_system": "MM1R", "experiment": "MTT assay panel", "settings": "MM.1R; MM1R cells, 72 hours", "protocol": "as §1"}, "SKOV3": {"test_system": "SKOV3", "experiment": "MTT assay panel", "settings": "Homo sapiens, SK-OV-3; SKOV3 cells, 72 hours", "protocol": "as §1"}, "MCF7": {"test_system": "MCF7", "experiment": "MTT assay panel", "settings": "Homo sapiens; MCF7 cells, 72 hours", "protocol": "as §1"}, "HeLa": {"test_system": "HeLa", "experiment": "MTT assay panel", "settings": "Homo sapiens; HeLa cells, 72 hours", "protocol": "as §1"}, "Colo-205": {"test_system": "Colo-205", "experiment": "MTT assay panel", "settings": "Homo sapiens; Colo-205 cells, 72 hours", "protocol": "as §1"}, "ANBL-6": {"test_system": "ANBL-6", "experiment": "MTT assay panel", "settings": "Homo sapiens; ANBL-6 cells, 72 hours", "protocol": "as §1"}, "NCI-H1299": {"test_system": "NCI-H1299", "experiment": "MTT assay panel", "settings": "Homo sapiens; NCI-H1299 cells, 72 hours", "protocol": "as §1"}, "HEL.92.1.7": {"test_system": "HEL.92.1.7", "experiment": "MTT assay panel", "settings": "Homo sapiens; HEL.92.1.7 cells, 72 hours", "protocol": "as §1"}, "Z-138": {"test_system": "Z-138", "experiment": "MTT assay panel", "settings": "Homo sapiens; Z-138 cells, 72 hours", "protocol": "as §1"}, "NCI-H520": {"test_system": "NCI-H520", "experiment": "MTT assay panel", "settings": "Homo sapiens; NCI-H520 cells, 72 hours", "protocol": "as §1"}, "Calu-3": {"test_system": "Calu-3", "experiment": "MTT assay panel", "settings": "Homo sapiens; Calu-3 cells, 72 hours", "protocol": "as §1"}, "Calu-6": {"test_system": "Calu-6", "experiment": "MTT assay panel", "settings": "Homo sapiens; Calu-6 cells, 72 hours", "protocol": "as §1"}}, "data": [{"smiles": "NC(=O)/C(=C/n1cnc(-c2cc(C(F)(F)F)cc(C(F)(F)F)c2)n1)c1cncnc1", "note": "[Compound 124, (E)-3-(3-(3,5-bis(trifluoromethyl)phenyl)-1H-1,2,4-triazol-1-yl)-2-(pyrimidin-5-yl)acrylamide]", "values": [{"measurement": "Rev-GFP localization, wild-type CRM1 co-expressed", "setting": "wild-type CRM1", "result": "Rev-GFP was localized to the cell nucleus and nucleolus"}, {"measurement": "IC50", "setting": "LoVo", "result": 680, "unit": "nM"}, {"measurement": "IC50", "setting": "SNU-398", "result": 970, "unit": "nM"}, {"measurement": "IC50", "setting": "MO7e", "result": 20, "unit": "nM"}, {"measurement": "IC50", "setting": "L3.6pl", "result": 470, "unit": "nM"}, {"measurement": "IC50", "setting": "MDA-MB-361", "result": "> 10", "unit": "µM"}, {"measurement": "IC50", "setting": "HEP3B", "result": 300, "unit": "nM"}, {"measurement": "IC50", "setting": "NCI-H508", "result": 860, "unit": "nM"}, {"measurement": "IC50", "setting": "PL-45", "result": 6.94, "unit": "µM"}, {"measurement": "IC50", "setting": "BL-2", "result": 30, "unit": "nM"}, {"measurement": "IC50", "setting": "HTB-38", "result": "> 10", "unit": "µM"}, {"measurement": "IC50", "setting": "U-937", "result": 250, "unit": "nM"}, {"measurement": "IC50", "setting": "DLD-1", "result": 800, "unit": "nM"}, {"measurement": "IC50", "setting": "HuCCT-1", "result": 50, "unit": "nM"}, {"measurement": "IC50", "setting": "NCI-H28", "result": 340, "unit": "nM"}, {"measurement": "IC50", "setting": "NCI-H69", "result": 1640, "unit": "nM"}, {"measurement": "IC50", "setting": "Pfieffer", "result": 140, "unit": "nM"}, {"measurement": "IC50", "setting": "SW-48", "result": 120, "unit": "nM"}, {"measurement": "IC50", "setting": "PATU-8988T", "result": 7.17, "unit": "µM"}, {"measurement": "IC50", "setting": "SW-1417", "result": "> 10", "unit": "µM"}, {"measurement": "IC50", "setting": "C6", "result": 150, "unit": "nM"}, {"measurement": "IC50", "setting": "MOLT4", "result": 10, "unit": "nM"}, {"measurement": "IC50", "setting": "HPAC", "result": 10, "unit": "µM"}, {"measurement": "IC50", "setting": "SHP-77", "result": 410, "unit": "nM"}, {"measurement": "IC50", "setting": "3T3", "result": 1100, "unit": "nM"}, {"measurement": "IC50", "setting": "SW-403", "result": 910, "unit": "nM"}, {"measurement": "IC50", "setting": "MM1R", "result": 8, "unit": "nM"}, {"measurement": "IC50", "setting": "SKOV3", "result": "> 10", "unit": "µM"}, {"measurement": "IC50", "setting": "MCF7", "result": 680, "unit": "nM"}, {"measurement": "IC50", "setting": "HeLa", "result": 1050, "unit": "nM"}, {"measurement": "IC50", "setting": "Colo-205", "result": 120, "unit": "nM"}, {"measurement": "IC50", "setting": "ANBL-6", "result": 220, "unit": "nM"}, {"measurement": "IC50", "setting": "NCI-H1299", "result": 50, "unit": "nM"}, {"measurement": "IC50", "setting": "HEL.92.1.7", "result": 230, "unit": "nM"}, {"measurement": "IC50", "setting": "Z-138", "result": 6, "unit": "nM"}, {"measurement": "IC50", "setting": "NCI-H520", "result": 1300, "unit": "nM"}, {"measurement": "IC50", "setting": "Calu-3", "result": 1380, "unit": "nM"}, {"measurement": "IC50", "setting": "Calu-6", "result": 1270, "unit": "nM"}]}]}
